Key:
[1] = molecular target: T1, non-His-tagged CLIC3 (Homo sapiens, UniProt O95833); assay: HEDS assay coupled to glutathione reductase, NADPH consumption at […] nm; assay type: biochemical; details: 1 mM GSH fixed, 250 uM NADPH, 0.5 ug/mL GR, 10 uM enzyme, 5 mM potassium phosphate, 1 mM EDTA, pH 7, 37 C; imidazole-free storage buffer
T1 construct: E. coli BL21(DE3); Ni-NTA and SEC; reduced soluble monomer

[2] = molecular target: non-His-tagged CLIC1 (Homo sapiens, UniProt O00299); details: 1 mM GSH fixed, 250 uM NADPH, 0.5 ug/mL GR, 10 uM enzyme, 5 mM potassium phosphate, 1 mM EDTA, pH 7, 37 C; imidazole-free storage buffer

T1 sequence (O95833 whole entry): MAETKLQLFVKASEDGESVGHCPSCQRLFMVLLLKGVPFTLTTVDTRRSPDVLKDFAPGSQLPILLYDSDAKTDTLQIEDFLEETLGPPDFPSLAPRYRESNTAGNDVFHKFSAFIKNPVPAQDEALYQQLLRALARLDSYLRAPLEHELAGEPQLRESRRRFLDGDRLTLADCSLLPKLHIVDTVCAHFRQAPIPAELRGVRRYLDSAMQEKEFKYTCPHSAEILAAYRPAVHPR

Which results are given for `OCCSSCCO` [HEDS]?
Km [1]: 994 µM; Km [2]: 2500 µM
